Where a name gives a salt, the structure may show the parent alone. Read-outs that look alike come from different tables or passages of the source. Residues, ends and D or L forms follow the SMILES beside them. No end group written: not given here. *: point of attachment. Doxorubicin(3'-N) = COc1cccc2c1C(=O)c1c(O)c3c(c(O)c1C2=O)C[C@@](O)(C(=O)CO)C[C@@H]3O[C@H]1C[C@H](N*)[C@H](O)[C@H](C)O1; acyl = not defined here; DOX = doxorubicin
Tests used:
HT29 cells [1] = assay: cells; assay type: cell-based, human; details: 48 hours; for IC50: CCK-8
Procedure: (§1) In addition, cytotoxicity was investigated using CCK-8 (cell counting kit-8). Specifically, 1×10^4 HT29 cells and 0.5×10^4 H9C2 cells were seeded onto a 96-well plate, respectively, and stabilized by culturing for 24 hours. A single administration group, drug administration groups and a control group were obtained by administering the anticancer agent (DOX) alone (0.01 to 100 μM) or together with the prodrug nanoparticles of Example 4 and Comparative Example 3 (0.01 to 100 μM), respectively, to each well and incubating at 37° C. for 48 hours. After the incubation was completed, a culture medium containing a 10% CCK-8 solution was added. After conducting reaction for 20 minutes, analysis was made with a microplate reader at a wavelength of 450 nm. After plotting cell survivability depending on concentration, IC50 (half-maximal inhibitory concentration) values were obtained for the single administration group, drug administration groups and control group using the GraphPad Prism 8 software (GraphPad Software, San Diego, CA, USA).

[2] = system: HT29 tumor-bearing BALB/c nu/nu mice; assay: Distribution of prodrug nanoparticles in vivo (fluorescence imaging, ex vivo organs, tissue sections)
Procedure: After 3, 6 and 9 hours of the drug injection, the test groups were imaged using an IVIS Lumina Series III system. After euthanasia, liver, lung, spleen, kidney, heart and tumor tissues were recovered.
The obtained tissues were sliced into 10 μm-thick sections, which were mounted individually on a slide glass, and washed tice with DPBS. Then, after staining with […] for 20 minutes, fluorescence signals were observed by CLSM.

H9C2 cells [3] = assay: Cytotoxicity CCK-8; assay type: cell-based, rat; details: for IC50: 48 hours, CCK-8, normal cells (cardiomyocytes)
Procedure: as §1

[4] = system: Cathepsin B-inhibited cells (HT29-Inh); assay: Cell-specific activity, DOX fluorescence distribution (CLSM); assay type: cell-based, human; details: HT29-Inh cells (Z-Phe-Ala-FMK 20 μM pretreated), 5 μM, 48 hours
Procedure: (§2) Then, experiment was performed as follows to analyze specific activity for cells. First, 2×10^5 HT29 cells and 2×10^5 H9C2 cells were seeded onto a glass-bottomed confocal dish, respectively. Cathepsin B-inhibited cells (HT29-Inh) were prepared by pretreating HT29 cells with Z-Phe-Ala-FMK (20 μM) for 24 hours. After stabilizing the cells by culturing for 24 hours, and administering the anticancer agent (DOX) alone (5 μM) or together with the prodrug nanoparticles of Example 4 and Comparative Example 3 (5 μM), respectively, a single administration group, drug administration groups and a control group were obtained by incubating at 37° C. for 48 hours. […] Each group was imaged by CLSM to obtain a fluorescence image, and fluorescence intensity was quantified from the fluorescence image to investigate the distribution of the prodrug nanoparticles using the Image-Pro software (Media Cybernetics, Rockville, MD, USA).

H9C2 cells [5] = assay: as above; assay type: cell-based, rat; details: 5 μM, 48 hours
Procedure: as §2

tumor-free BALB/c mice [6] = assay: Toxicity in vivo, single administration; details: single i.v. administration
Procedure: Test groups 9 to 12 were prepared by injecting an anticancer agent (DOX) (3 or 4 mg/kg) or the prodrug nanoparticles of Example 4 (4 or 10 mg/kg based on DOX concentration) once to tumor-free BALB/c mice (5-week-old) via the tail vein (n=5 for each test group).
Tumor volume, body weight and survival rate were measured every day after injection of the drug to the test groups. 8 days later, the mice were euthanized and liver, lung, spleen, kidney, heart and cancer tissues were recovered. Each of the recovered liver, lung, spleen, kidney, heart and cancer tissues was fixed with 4% paraformaldehyde for 15 minutes, embedded in wax, and then sliced to 10 μm-thick sections. Then, after staining with H&E, the morphological damage to the tissues was analyzed by imaging with an optical microscope.
(§3) For evaluation of hematotoxicity, 1 mL of blood was taken from each test group, and blood plasma was separated by centrifuging at 4,500 rpm for 20 minutes. Blood analysis was performed according to the instructions of KNOTUS Co., Ltd. (Incheon, Korea).

[7] = system: HT29 tumor-bearing BALB/c nu/nu mice; details: mouse, in vivo, iv
Procedure: (§4) 1×10^7 HT29 cells were subcutaneously injected into the left flank of the 5-week-old male BALB/c nu/nu mice. An animal model of cancer was prepared by breeding the mice until the tumor size grew to about 60 to 80 mm^3.
(§5) Test groups 6 to 8 were prepared by injecting an anticancer agent (DOX) (3 mg/kg) or the prodrug nanoparticles of Example 4 (4 or 10 mg/kg based on DOX concentration) to the animal model of cancer via the tail vein once in 3 days at the same time (n=5 for each test group). The overall treatment period was 26 days, and the number of drug administration was 8 times.
(§6) After the treatment period, tumor volume, body weight and survival rate of each test group were measured every 2 days. After euthanasia, liver, lung, spleen, kidney, heart and cancer tissues were recovered and subjected to histological and TUNEL assay.
(§7) The tumor volume was calculated from the longest diameter×(the shortest diameter)^2×0.53 of the cancer tissue, and a tumor volume larger than 1,000 mm^3 was judged as death.
(§8) For histological analysis, each of the recovered liver, lung, spleen, kidney, heart and cancer tissues was fixed with 4% paraformaldehyde for 15 minutes, embedded in wax, and then sliced to 10 μm-thick sections. Then, after staining with H&E, the morphological damage to the tissues was analyzed by imaging with an optical microscope.
(§9) The cancer tissue was stained by TUNEL (terminal deoxynucleotidyl transferase dUTP nick end labeling) analysis for visualization of the apoptotic region.

tumor-free BALB/c mice [8] = details: multiple administration; for body weight change: once in 3 days, 8 times
Procedure: 8 days later, the mice were euthanized and liver, lung, spleen, kidney, heart and cancer tissues were recovered. Each of the recovered liver, lung, spleen, kidney, heart and cancer tissues was fixed with 4% paraformaldehyde for 15 minutes, embedded in wax, and then sliced to 10 μm-thick sections. Then, after staining with H&E, the morphological damage to the tissues was analyzed by imaging with an optical microscope.
as §3

[9] = system: HT29 tumor-bearing BALB/c nu/nu mice; assay: Anticancer effect in animal model of cancer
Procedure: as §4, §5, §6, §7, §8, §9

Cytotoxicity CCK-8 = assay type: cell-based, rat; details: rat, H9C2 cells; at 1 to 100 μM, 48 hours; read-out: survival rate of normal cells
Procedure: as §1

[10] = system: T1, FRRL-DOX conjugate / prodrug nanoparticles of Example 4 (N-acylated Phe-Arg-Arg-Leu conjugated with doxorubicin)
T1 sequence: FRRG

HT29 cells [11] = assay: Degradation after cellular uptake (MALDI-TOF of cell filtrate); assay type: cell-based, human; details: 100 μM, 48 hours
Procedure: In order to further investigate whether the prodrug nanoparticles are degraded after cellular uptake, 1×10^6 HT29 cells were seeded onto a 100-mm cell culture dish and stabilized by culturing for 24 hours. After administering the prodrug nanoparticles of Examples 4 to 6 and Comparative Example 3 (100 μM) to the cells, drug administration groups 1, 2 and 3 (FRRL-DOX, FRRLG-DOX, FLRRG-DOX) and a control group (FRRG-DOX) were obtained by incubating at 37° C. for 48 hours. Each group was washed with PBS and dispersed in distilled water (H2O). The dispersion was filtered through a 0.45-μm syringe filter, and the recovered filtrate was subjected to mass analysis by MALDI-TOF.

HT29 colon cancer cells = assay: Cellular uptake and intranuclear localization (CLSM); assay type: cell-based, human; details: 5 μM
Procedure: The cellular uptake and intranuclear localization of the prodrug nanoparticles (5 μM) were analyzed using HT29 colon cancer cells. In order to investigate the intracellular behavior and intracellular interaction of the prodrug nanoparticles, 2×10^5 HT29 cells were seeded onto a glass-bottomed confocal dish. After stabilizing the cells by culturing for 24 hours, they were treated with the prodrug nanoparticles of Examples 4 to 6 and Comparative Example 3 (5 μM), and drug administration groups 1, 2 and 3 (FRRL-DOX, FRRLG-DOX, FLRRG-DOX) and a control group (FRRG-DOX) were obtained by incubating at 37° C. for 0, 24 and 48 hours. […] Each group was imaged by CLSM to obtain a fluorescence image, and fluorescence intensity was quantified from the fluorescence image to investigate the distribution of the prodrug nanoparticles using the Image-Pro software (Media Cybernetics, Rockville, MD, USA).

[12] = molecular target: lysosome enzymes other than cathepsin B; assay: cell-based or functional assay
[13] = i.v. once in 3 days, test group 6
[14] = test group 4, 4 mg/kg based on DOX

COc1cccc2c1C(=O)c1c(O)c3c(c(O)c1C2=O)C[C@@](O)(C(=O)CO)C[C@@H]3O[C@H]1C[C@H](NC(=O)CNC(=O)[C@H](CCCNC(=N)N)NC(=O)[C@H](CCCNC(=N)N)NC(=O)[C@H](Cc2ccccc2)NC(C)=O)[C@H](O)[C@H](C)O1 [Comparative Example 3] (Ac-FRRG-{Doxorubicin(3'-N)})
IC50 (HT29 cells [1]): 14.1 µM | accumulation in liver tissues relative to cancer tissues ([2]; test group 2, 4 mg/kg based on DOX, i.v.): 2.4 times | accumulation in liver tissues relative to cancer tissues ([2]; test group 3, 10 mg/kg based on DOX, i.v.): 6.7 times | IC50 (H9C2 cells [3]): 158 µM

COc1cccc2c1C(=O)c1c(O)c3c(c(O)c1C2=O)C[C@@](O)(C(=O)CO)C[C@@H]3O[C@H]1C[C@H](N)[C@H](O)[C@H](C)O1 [DOX, Doxorubicin hydrochloride]
location of fluorescence of anticancer agent (DOX) [4]: penetrated into the cell nucleus | location of fluorescence of anticancer agent (DOX) (H9C2 cells [5]): penetrated into the cell nucleus | histochemical analysis of organ tissues (H&E) (tumor-free BALB/c mice [6]): damaged severely | body weight decrease (tumor-free BALB/c mice [6]; 3 and 4 mg/kg): ≥ 9% | IC50 (HT29 cells [1]; Homo sapiens, HT-29): 0.12 µM | systemic toxicity [7]: severe systemic toxicity | hematotoxicity (tumor-free BALB/c mice [8]): significant hematotoxicity | histochemical analysis of organ tissues (H&E) (tumor-free BALB/c mice [8]): normal tissues were destroyed and damaged | all the mice died within (tumor-free BALB/c mice [8]; DOX 3 and 4 mg/kg): ≤ 20 days | levels of hemoglobin and hematocrit (tumor-free BALB/c mice [8]; DOX 3 and 4 mg/kg): outside normal ranges | body weight change (tumor-free BALB/c mice [8]): rapid body weight decrease | red fluorescence (DOX) in cancer tissue sections ([2]; 4 mg/kg i.v., confocal, DAPI): hardly observed | fluorescence intensity in kidney tissues relative to cancer tissues ([2]; 4 mg/kg i.v., test group 1): 8.8 times | survival rate in tumor cells versus normal cells (H9C2 cells [3]; HT29 versus H9C2): no difference in the survival rate | IC50 (H9C2 cells [3]; Rattus norvegicus, H9c2): 0.12 µM | histopathological analysis of cancer tissue ([9]; H&E, after treatment): relatively weak damage of the cancer tissue | TUNEL assay of cancer tissue (green fluorescence) ([9]; after treatment): weak green fluorescence | all the mice died within [9, 13]: ≤ 20 days | death observed within [9, 13]: ≤ 5 days

COc1cccc2c1C(=O)c1c(O)c3c(c(O)c1C2=O)C[C@@](O)(C(=O)CO)C[C@@H]3O[C@H]1C[C@H](NC(=O)[C@H](CC(C)C)NC(=O)[C@H](CCCNC(=N)N)NC(=O)[C@H](CCCNC(=N)N)NC(=O)[C@H](Cc2ccccc2)NC(C)=O)[C@H](O)[C@H](C)O1 [Example 4] (Ac-FRRL-{Doxorubicin(3'-N)})
histochemical analysis of organ tissues (H&E) (tumor-free BALB/c mice [6]): no damaged organ tissue | body weight change (tumor-free BALB/c mice [6]; 4 and 10 mg/kg based on DOX): no significant change in body weight | IC50 (HT29 cells [1]): 6.13 µM | survival rate of cancer cells (HT29 cells [1]; at 1 to 100 μM): 0% | hematotoxicity (tumor-free BALB/c mice [8]): no hematotoxicity | histochemical analysis of organ tissues (H&E) (tumor-free BALB/c mice [8]): no significant damage of organ tissues | all the mice survived healthily for (tumor-free BALB/c mice [8]; 4 and 10 mg/kg based on DOX): more than 26 days | body weight change (tumor-free BALB/c mice [8]): no body weight change | accumulation efficiency for cancer tissues (in vivo fluorescence imaging) ([2]; 4 mg/kg based on DOX, i.v., 9 hours, vs DOX alone or Comparative Example 3): significantly high accumulation efficiency for cancer tissues | cancer-targeting ability (fluorescence of isolated cancer tissue), times higher than DOX ([2]; 4 mg/kg based on DOX, i.v., test group 4 vs 1): 2.3 times | cancer-targeting ability (fluorescence of isolated cancer tissue), times higher than Comparative Example 3 ([2]; 4 mg/kg based on DOX, i.v., test group 4 vs 2): 1.4 times | accumulation in cancer tissues relative to kidney tissues ([2]; 4 and 10 mg/kg based on DOX, i.v., test groups 4 and 5): ≥ 2 times | accumulation efficiency for liver tissues, times lower than Comparative Example 3 ([2]; first of two printed values (4 and 10 mg/kg groups)): 2.4 times | accumulation efficiency for liver tissues, times lower than Comparative Example 3 ([2]; second of two printed values (4 and 10 mg/kg groups)): 4.8 times | red fluorescence in cancer tissue sections, times stronger than test group 1 [2, 14]: 6.7 times | red fluorescence in cancer tissue sections, times stronger than test group 3 [2, 14]: 2.6 times | viability at 48 h (Cytotoxicity CCK-8): 80% | IC50 (H9C2 cells [3]): 182 µM | systemic toxicity ([9]; repeated i.v. administration in tumor-bearing mice): no severe systemic toxicity

Cathepsin B (purchased from R&D Systems), enzyme in solution
RP-HPLC peaks of conjugate and cleavage product over reaction time [10]: a peak of L-DOX was observed at 14.7 minutes 3 hours after the reaction. The peak of the FRRL-DOX conjugate began to decrease and was not detected at all 24 hours after the reaction

Example 6: conjugate of N-terminally acylated peptide Phe-Leu-Arg-Arg-Gly (SEQ ID NO: 3) and doxorubicin; self-assembled prodrug nanoparticles (acyl-FLRRG-{DOX}; reading uncertain; also: printed as FLRRG-DOX)
degradation of prodrug nanoparticles in the cancer cells (MALDI-TOF) (HT29 cells [11]): slightly low sensitivity to cathepsin B | anticancer agent (DOX) delivered into the nucleus (ratio of accumulation in the nucleus) (HT29 colon cancer cells; 48 h, fluorescence intensity nucleus vs cytoplasm): 21% | location of red fluorescence (DOX) in the cells (HT29 colon cancer cells; confocal images): mainly in the region other than the nucleus

FLRRG-{DOX} (not fully specified (N-terminus); printed as FLRRG-DOX)
degradation ratio (%) [12]: < 5%

FRRLG-{DOX} (not fully specified (N-terminus); printed as FRRLG-DOX)
degradation ratio (%) [12]: < 5%

— US20250281627A1, “CANCER-TARGETING PEPTIDE, PRODRUG NANOPARTICLES COMPRISING SAME, AND PHARMACEUTICAL COMPOSITION COMPRISING SAME FOR CANCER PREVENTION OR TREATMENT” (priority 2022, published 2025)
